From US7105510B2, “Non-nucleoside reverse transcriptase inhibitors” (Boehringer Ingelheim (Canada) Ltd., priority 2002, dated 2006)

Tests used:
HIV-1 RT WT = target: T1, HIV-1 RT WT (Human immunodeficiency virus type 1 group M subtype B, UniProt P03366); experiment: Reverse Transcriptase (RT) assay, wild type; format: biochemical
T1 construct: mutations that occur in the reverse transcriptase segment of the pol gene
Excerpt: (§1) Based upon testing of these compounds, as described below, it is known that they inhibit the RNA-dependent DNA polymerase activity of HIV-1 RT. Utilizing the Reverse Transcriptase (RT) Assay described below, compounds can be tested for their ability to inhibit the RNA-dependent DNA polymerase activity of HIV-1 RT. Certain specific compounds described in the Examples which appear below, were so tested. The results of this testing appear in Table 2 as IC50 (nM) and EC50 (nM).
(§2) Reverse Transcriptase (RT) and Cell-Based Assays
(§3) The assays are as described in WO 01/96338A1, the contents of which are hereby incorporated herein.

HIV-1 RT K103N/Y181C = target: T2, HIV-1 RT K103N/Y181C (Human immunodeficiency virus type 1 group M subtype B, UniProt P03366, K702N/Y780C); experiment: Reverse Transcriptase (RT) assay, double mutant K103N/Y181C; format: biochemical
T2 construct: mutations that occur in the reverse transcriptase segment of the pol gene
Excerpt: as §1, §2, §3

HIV-1 WT = experiment: Cell-based assay, wild type; conditions: Human immunodeficiency virus 1
Excerpt: as §2, §3

[1] = tested on: HIV-1 K103N/Y181C (103/181); experiment: Cell-based assay, 103/181 double mutant; conditions: Human immunodeficiency virus 1, read-out: EC50 103/181
Excerpt: as §2, §3

Row | Structure (SMILES) | IC50 (HIV-1 RT WT) [µM] | IC50 (HIV-1 RT K103N/Y181C) [µM] | EC50 (HIV-1 WT) [µM] | EC50 [1] [µM]
1 | CCN1c2ncc(CCOc3cccc4c3CNC(=O)N4C)cc2C(=O)N(C)c2cccnc21 [Entry 113] | < 0.05 | < 0.05 | < 0.01 | < 0.01
2 | CCN1c2ncc(CCOc3ccc4c(c3)CNC(=O)N4)cc2C(=O)N(C)c2cccnc21 [Entry 121] | 0.05 to 0.1 | > 0.1 | – | –
3 | CCN1c2ncc(CCOc3ccc4c(c3)CN(C)C(=O)N4C)cc2C(=O)N(C)c2cccnc21 [Entry 120] | < 0.05 | > 0.1 | – | –
4 | CCN1c2ncc(CCOc3cccc4c3CCNC4=O)cc2C(=O)Nc2c(C)ccnc21 [Entry 109] | < 0.05 | > 0.1 | – | –
5 | CCN1c2ncc(CCOc3cccc4c3CNC4=O)cc2C(=O)N(C)c2cccnc21 [Entry 101, 5,11-Dihydro-8-{2-{(2,3-dihydro-1-oxo-1H-isoindol-4-yl)oxy}ethyl}-11-ethyl-5-methyl-6H-dipyrido[3,2-b:2′,3′-e][1,4]diazepin-6-one] | < 0.05 | > 0.1 | < 0.01 | < 0.01
6 | CCN1c2ncc(CCOc3ccc4on(C)c(=O)c4c3)cc2C(=O)Nc2c(C)cc(F)nc21 [Entry 130] | < 0.05 | > 0.1 | – | –
7 | CCN1c2ncc(CCOc3cccc4c3COC(=O)N4)cc2C(=O)N(C)c2cccnc21 [Entry 126, 5,11-Dihydro-8-{2-{(1,4-dihydro-2-oxo-2H-3,1-benzoxazin-5-yl)oxy}ethyl}-11-ethyl-5-methyl-6H-dipyrido[3,2-b:2′,3′-e][1,4]diazepin-6-one] | < 0.05 | > 0.1 | – | –
8 | CCN1c2ncc(CCOc3ccc4c(c3)CNC(=O)N4C)cc2C(=O)N(C)c2cccnc21 [Entry 119] | < 0.05 | > 0.1 | – | –
9 | CCN1c2ncc(CCOc3cccc4c3CN(C)C(=O)N4C)cc2C(=O)N(C)c2cccnc21 [Entry 112] | < 0.05 | > 0.1 | < 0.01 | 0.01 to 0.05
10 | CCN1c2ncc(CCOc3cccc4[nH]c(=O)n(C)c34)cc2C(=O)N(C)c2cccnc21 [Entry 132] | 0.05 to 0.1 | > 0.1 | – | –
11 | CCN1c2ncc(CCOc3ccc4on(C(C)(C)C)c(=O)c4c3)cc2C(=O)Nc2c(C)cc(F)nc21 [Entry 129, 5,11-Dihydro-8-{2-{{2,3-dihydro-2-(1,1-dimethylethyl)-3-oxo-1,2-benzisoxazol-5-yl}oxy}ethyl}-2-fluoro-11-ethyl-4-methyl-6H-dipyrido[3,2-b:2′,3′-e][1,4]diazepin-6-one] | 0.05 to 0.1 | > 0.1 | – | –
12 | Cc1ccnc2c1NC(=O)c1cc(CCOc3cccc4c3CNC(=O)N4)cnc1N2C1CC1 [Entry 114] | < 0.05 | > 0.1 | – | –
13 | CCN1c2ncc(CCOc3cccc4c3CNC(=O)O4)cc2C(=O)N(C)c2cccnc21 [Entry 124, 5,11-Dihydro-8-{2-{(3,4-dihydro-2-oxo-2H-1,3-benzoxazin-5-yl)oxy}ethyl}-11-ethyl-5-methyl-6H-dipyrido[3,2-b:2′,3′-e][1,4]diazepin-6-one] | < 0.05 | < 0.05 | – | –
14 | CCN1c2ncc(CCOc3cccc4c3C(C)C(=O)N4C)cc2C(=O)N(C)c2cccnc21 (stereo not drawn) [Entry 106, 5,11-dihydro-8-{2-{(2,3-dihydro-1,3-dimethyl-2-oxo-1H-indol-4-yl)oxy}ethyl}-11-ethyl-5-methyl-6H-dipyrido[3,2-b:2′,3′-e][1,4]diazepin-6-one] | 0.05 to 0.1 | > 0.1 | – | –
15 | CCN1c2ncc(CCOc3cccc4c3COC(=O)N4)cc2C(=O)Nc2c(C)ccnc21 [Entry 127] | < 0.05 | > 0.1 | – | –
16 | CCN1c2ncc(CCOc3ccc4[nH]c(=O)[nH]c4c3)cc2C(=O)N(C)c2cccnc21 [Entry 122, 5,11-Dihydro-8-{2-{(2,3-dihydro-2-oxo-1H-benzimidazol-5-yl)oxy}ethyl}-11-ethyl-5-methyl-6H-dipyrido[3,2-b:2′,3′-e][1,4]diazepin-6-one] | 0.05 to 0.1 | > 0.1 | – | –
17 | CCN1c2ncc(CCOc3cccc4c3C(C)(C)OC(=O)N4)cc2C(=O)N(C)c2cccnc21 [Entry 125, 5,11-Dihydro-8-{2-{(1,4-dihydro-4,4-dimethyl-2-oxo-2H-3,1-benzoxazin-5-yl)oxy}ethyl}-11-ethyl-5-methyl-6H-dipyrido[3,2-b:2′,3′-e][1,4]diazepin-6-one] | 0.05 to 0.1 | > 0.1 | – | –

Row | Structure (SMILES) | IC50 (HIV-1 RT WT) [µM] | IC50 (HIV-1 RT K103N/Y181C) [µM] | EC50 (HIV-1 WT) [µM] | EC50 [1] [µM]
18 | CCN1c2ncc(CCOc3cccc4c3CN(O)C4=O)cc2C(=O)N(C)c2cccnc21 [Entry 103, 5,11-Dihydro-8-{2-{(2,3-dihydro-2-hydroxy-1-oxo-1H-isoindol-4-yl)oxy}ethyl}-11-ethyl-5-methyl-6H-dipyrido[3,2-b:2′,3′-e][1,4]diazepin-6-one] | 0.05 to 0.1 | > 0.1 | < 0.01 | 0.01 to 0.05
19 | CCN1c2ncc(CCOc3cccc4c3CNC(=O)N4C)cc2C(=O)Nc2c(C)ccnc21 [Entry 116] | < 0.05 | > 0.1 | – | –
20 | CCN1c2ncc(CCOc3cccc4c3n(C)c(=O)n4C)cc2C(=O)N(C)c2cccnc21 [Entry 131] | 0.05 to 0.1 | > 0.1 | – | –
21 | CCN1c2ncc(CCOc3cccc4c3CNC4=O)cc2C(=O)Nc2c(C)ccnc21 [Entry 102] | < 0.05 | > 0.1 | < 0.01 | < 0.01
22 | CCN1c2ncc(CCOc3cccc4c3CNC(=O)N4)cc2C(=O)Nc2c(C)ccnc21 [Entry 111] | < 0.05 | > 0.1 | < 0.01 | 0.01 to 0.05
23 | CCN1c2ncc(CCOc3cccc4c3CN(Cc3ccncc3)C4=O)cc2C(=O)N(C)c2cccnc21 [Entry 104, 5,11-dihydro-8-{2-{{2,3-dihydro-1-oxo-2-(4-pyridinylmethyl)-1H-isoindol-4-yl}oxy}ethyl}-11-ethyl-5-methyl-6H-dipyrido[3,2-b:2′,3′-e][1,4]diazepin-6-one] | < 0.05 | 0.05 to 0.1 | – | –
24 | CCN1c2ncc(CCOc3cccc4c3CNC(=O)N4CC(=O)O)cc2C(=O)N(C)c2cccnc21 [Entry 118] | < 0.05 | > 0.1 | > 0.05 | > 0.05
25 | CCN1c2ncc(CCOc3ccc4c(c3)COC(=O)N4)cc2C(=O)N(C)c2cccnc21 [Entry 133] | < 0.05 | > 0.1 | – | –
26 | CCN1c2ncc(CCOc3cccc4c3CC(=O)N4C)cc2C(=O)N(C)c2cccnc21 [Entry 107, 5,11-dihydro-8-{2-{(2,3-dihydro-1-methyl-2-oxo-1H-indol-4-yl)oxy}ethyl}-11-ethyl-5-methyl-6H-dipyrido[3,2-b:2′,3′-e][1,4]diazepin-6-one] | 0.05 to 0.1 | – | – | –
27 | CCN1c2ncc(CCOc3cccc4c3CCNC4=O)cc2C(=O)N(C)c2cccnc21 [Entry 108] | < 0.05 | 0.05 to 0.1 | – | –
28 | CCN1c2ncc(CCOc3cccc4c3CC(=O)N4)cc2C(=O)N(C)c2cccnc21 [Entry 105, 5,11-Dihydro-8-{2-{(2,3-dihydro-2-oxo-1H-indol-4-yl)oxy}ethyl}-11-ethyl-5-methyl-6H-dipyrido[3,2-b:2′,3′-e][1,4]diazepin-6-one] | 0.05 to 0.1 | > 0.1 | – | –
29 | CCN1c2ncc(CCOc3cccc4c3CNC(=O)N4)cc2C(=O)N(C)c2cccnc21 [Entry 110, 5,11-Dihydro-11-ethyl-5-methyl-8-{2-{(1,2,3,4-tetrahydro-2-oxo-5-quinazolinyl)oxy}ethyl}-6H-dipyrido[3,2-b:2′,3′-e][1,4]diazepin-6-one] | < 0.05 | > 0.1 | < 0.01 | < 0.01
30 | CCN1c2ncc(CCOc3cccc4c3CN(C)C(=O)N4C)cc2C(=O)Nc2c(C)ccnc21 [Entry 115] | < 0.05 | > 0.1 | – | –
31 | CCN1c2ncc(CCOc3cccc4c3COC(=O)N4CC(=O)O)cc2C(=O)N(C)c2cccnc21 [Entry 128, 5-[2-(6,11-dihydro-11-ethyl-5-methyl-6-oxo-5H-dipyrido[3,2-b:2′,3′-e][1,4]diazepin-8-yl)ethoxy]-2-oxo-2H-3,1-benzoxazine-1(4H)-acetic acid] | 0.05 to 0.1 | > 0.1 | – | –
32 | CCN1C(=O)c2cc(CCOc3cccc4c3CNC(=O)N4)cnc2N(CC)c2ncccc21 [Entry 117] | < 0.05 | > 0.1 | – | –
33 | CCN1c2ncc(CCOc3cccc4c3CNC(=O)C4)cc2C(=O)N(C)c2cccnc21 [Entry 123, 5,11-Dihydro-11-ethyl-5-methyl-8-{2-{(1,2,3,4-tetrahydro-3-oxo-8-isoquinolinyl)oxy}ethyl}-6H-dipyrido[3,2-b:2′,3′-e][1,4]diazepin-6-one] | < 0.05 | < 0.05 | – | –
